{"source": "ChEMBL document CHEMBL1201862", "about": "“PubChem BioAssay data set” (2004)", "assay_in_all_cases": "NCI-60 cell line screen, 48 h", "key": {"[1]": {"tested_on": "MDA-MB-231"}, "[2]": {"tested_on": "HOP-62"}, "[3]": {"tested_on": "OVCAR-4"}, "[4]": {"tested_on": "MDA-MB-435"}, "[5]": {"tested_on": "A498"}, "[6]": {"tested_on": "SN12C"}, "[7]": {"tested_on": "SNB-75"}, "[8]": {"tested_on": "PC-3"}, "[9]": {"tested_on": "SK-OV-3"}, "[10]": {"tested_on": "BT-549"}, "[11]": {"tested_on": "HCT-15"}, "[12]": {"tested_on": "Hs-578T"}, "[13]": {"tested_on": "CAKI-1"}, "[14]": {"tested_on": "ACHN"}, "[15]": {"tested_on": "UACC-257"}, "[16]": {"tested_on": "SF-539"}, "[17]": {"tested_on": "SF-295"}, "[18]": {"tested_on": "SR"}, "[19]": {"tested_on": "OVCAR-5"}, "[20]": {"tested_on": "OVCAR-8"}}, "note": "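Following 48 hours of exposure in 96-well plates, responses at five concentrations were used to interpolate endpoints linearly. The concentration for 50% growth inhibition is given as GI50.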 The source made the active and inactive calls. Cut-off read from the data, not from the text of the source: active = GI50 up to about 1.1 µM and inactive = higher.", "data": [{"compound": "Oc1cc(F)cc2cccnc12", "values": [{"measurement": "GI50", "setting": "[1]", "result": "1.54 µM (inactive)"}, {"measurement": "GI50", "setting": "[2]", "result": "2.56 µM (inactive)"}, {"measurement": "GI50", "setting": "[3]", "result": "0.435 µM (active)"}, {"measurement": "GI50", "setting": "[4]", "result": "2.38 µM (inactive)"}, {"measurement": "GI50", "setting": "[5]", "result": "6.58 µM (inactive)"}, {"measurement": "GI50", "setting": "[6]", "result": "1.04 µM (active)"}, {"measurement": "GI50", "setting": "[7]", "result": "11.8 µM (inactive)"}, {"measurement": "GI50", "setting": "[8]", "result": "1.27 µM (inactive)"}, {"measurement": "GI50", "setting": "[9]", "result": "4.45 µM (inactive)"}, {"measurement": "GI50", "setting": "[10]", "result": "0.968 µM (active)"}, {"measurement": "GI50", "setting": "[11]", "result": 0.25, "unit": "µM"}, {"measurement": "GI50", "setting": "[12]", "result": "3.68 µM (inactive)"}, {"measurement": "GI50", "setting": "[13]", "result": "3.96 µM (inactive)"}, {"measurement": "GI50", "setting": "[14]", "result": "0.933 µM (active)"}, {"measurement": "GI50", "setting": "[15]", "result": "0.402 µM (active)"}, {"measurement": "GI50", "setting": "[16]", "result": "1.34 µM (inactive)"}, {"measurement": "GI50", "setting": "[17]", "result": "1.1 µM (active)"}, {"measurement": "GI50", "setting": "[18]", "result": "0.182 µM (active)"}, {"measurement": "GI50", "setting": "[19]", "result": "3.29 µM (inactive)"}, {"measurement": "GI50", "setting": "[20]", "result": "0.324 µM (active)"}]}, {"compound": "O=C(/N=S(/NC(=O)c1ccccc1)C(Cl)(Cl)Cl)c1ccccc1", "note": "(stereo not given)", "values": [{"measurement": "GI50", "setting": "[1]", "result": "33.7 µM (inactive)"}, {"measurement": "GI50", "setting": "[2]", "result": "19.5 µM (inactive)"}, {"measurement": "GI50", "setting": "[3]", "result": "17.4 µM (inactive)"}, {"measurement": "GI50", "setting": "[4]", "result": "17.7 µM (inactive)"}, {"measurement": "GI50", "setting": "[5]", "result": "27 µM (inactive)"}, {"measurement": "GI50", "setting": "[6]", "result": "24.7 µM (inactive)"}, {"measurement": "GI50", "setting": "[7]", "result": "40.6 µM (inactive)"}, {"measurement": "GI50", "setting": "[8]", "result": "46.2 µM (inactive)"}, {"measurement": "GI50", "setting": "[9]", "result": "> 31.6 µM (inactive)"}, {"measurement": "GI50", "setting": "[10]", "result": "12.7 µM (inactive)"}, {"measurement": "GI50", "setting": "[11]", "result": 8.59, "unit": "µM"}, {"measurement": "GI50", "setting": "[12]", "result": "40.6 µM (inactive)"}, {"measurement": "GI50", "setting": "[13]", "result": "20.9 µM (inactive)"}, {"measurement": "GI50", "setting": "[14]", "result": "18.4 µM (inactive)"}, {"measurement": "GI50", "setting": "[15]", "result": "35.2 µM (inactive)"}, {"measurement": "GI50", "setting": "[16]", "result": "21.1 µM (inactive)"}, {"measurement": "GI50", "setting": "[17]", "result": "9.25 µM (inactive)"}, {"measurement": "GI50", "setting": "[18]", "result": "17.1 µM (inactive)"}, {"measurement": "GI50", "setting": "[19]", "result": "22.9 µM (inactive)"}, {"measurement": "GI50", "setting": "[20]", "result": "15.5 µM (inactive)"}]}, {"compound": "NC(=O)[C@H](Cc1ccc(O)cc1)NC1=C(Cl)C(=O)c2c(O)ccc(O)c2C1=O", "values": [{"measurement": "GI50", "setting": "[1]", "result": "2.51 µM (inactive)"}, {"measurement": "GI50", "setting": "[2]", "result": "> 10 µM (inactive)"}, {"measurement": "GI50", "setting": "[3]", "result": "1.83 µM (inactive)"}, {"measurement": "GI50", "setting": "[4]", "result": "2.07 µM (inactive)"}, {"measurement": "GI50", "setting": "[5]", "result": "4.4 µM (inactive)"}, {"measurement": "GI50", "setting": "[6]", "result": "3.55 µM (inactive)"}, {"measurement": "GI50", "setting": "[7]", "result": "4.93 µM (inactive)"}, {"measurement": "GI50", "setting": "[8]", "result": "2.24 µM (inactive)"}, {"measurement": "GI50", "setting": "[9]", "result": "> 10 µM (inactive)"}, {"measurement": "GI50", "setting": "[10]", "result": "2.47 µM (inactive)"}, {"measurement": "GI50", "setting": "[11]", "result": 1.79, "unit": "µM"}, {"measurement": "GI50", "setting": "[12]", "result": "3.71 µM (inactive)"}, {"measurement": "GI50", "setting": "[13]", "result": "2.37 µM (inactive)"}, {"measurement": "GI50", "setting": "[14]", "result": "2.67 µM (inactive)"}, {"measurement": "GI50", "setting": "[15]", "result": "3.15 µM (inactive)"}, {"measurement": "GI50", "setting": "[16]", "result": "2.17 µM (inactive)"}, {"measurement": "GI50", "setting": "[17]", "result": "> 10 µM (inactive)"}, {"measurement": "GI50", "setting": "[18]", "result": "1.34 µM (inactive)"}, {"measurement": "GI50", "setting": "[19]", "result": "8.89 µM (inactive)"}, {"measurement": "GI50", "setting": "[20]", "result": "2.54 µM (inactive)"}]}]}
